Assay results reported in patent US9630963B2, “Quinolone derivatives as fibroblast growth factor inhibitors” (Principia Biopharma, Inc., priority 2013, dated 2017).
pIC50: −log10 of the molar value.

Assays:
SNU-16 cells = assay: Inhibition of FGFR2-dependent cell growth (Cell-titer Glo); type: cell-based; settings: Homo sapiens, SNU16 cells, 72 hrs incubation, cell viability by Cell-titer Glo
Description: The cell-based effects of FGFR inhibitors were determined by measuring inhibition of FGFR-dependent cell line growth. […] Percent inhibition of cell growth was calculated as a percentage of untreated cell viability. The percent inhibition was plotted as a function of log compound concentration. The IC50 was then calculated for each compound using Prism software from GraphPad.

human recombinant FGFR1 = human recombinant FGFR1 (Homo sapiens, UniProt P11362); assay: FGFR family enzymatic activity assay (Caliper-based kinase assay), FGFR1; type: biochemical; settings: FGFR1 0.5 nM, ATP 100 μM, peptide substrate 1 μM, room temperature 3 h
Chain of human recombinant FGFR1 (P11362 22-822): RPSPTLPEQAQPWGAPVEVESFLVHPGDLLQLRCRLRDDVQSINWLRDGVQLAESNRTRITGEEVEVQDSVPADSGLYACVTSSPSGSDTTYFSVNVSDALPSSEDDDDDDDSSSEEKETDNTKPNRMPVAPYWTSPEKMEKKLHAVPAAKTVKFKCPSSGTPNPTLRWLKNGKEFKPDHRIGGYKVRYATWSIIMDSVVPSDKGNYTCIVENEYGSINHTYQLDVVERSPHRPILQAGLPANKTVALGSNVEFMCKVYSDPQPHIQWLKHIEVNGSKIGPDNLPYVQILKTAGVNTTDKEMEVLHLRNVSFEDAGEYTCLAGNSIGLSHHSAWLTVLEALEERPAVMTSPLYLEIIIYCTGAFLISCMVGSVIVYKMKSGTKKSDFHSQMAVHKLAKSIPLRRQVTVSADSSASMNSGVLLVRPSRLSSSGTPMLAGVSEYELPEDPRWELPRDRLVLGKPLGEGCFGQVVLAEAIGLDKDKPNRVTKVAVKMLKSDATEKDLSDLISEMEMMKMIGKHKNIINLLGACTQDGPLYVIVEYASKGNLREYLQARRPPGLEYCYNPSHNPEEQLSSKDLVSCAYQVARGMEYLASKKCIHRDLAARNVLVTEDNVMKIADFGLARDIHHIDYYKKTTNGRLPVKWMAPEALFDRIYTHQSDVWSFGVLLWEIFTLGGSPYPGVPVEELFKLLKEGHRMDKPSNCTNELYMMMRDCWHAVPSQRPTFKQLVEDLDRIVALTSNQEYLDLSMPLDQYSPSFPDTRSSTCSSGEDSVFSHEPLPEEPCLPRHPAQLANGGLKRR
Source text: A Caliper-based kinase assay (Caliper Life Sciences, Hopkinton, Mass.) was used to measure inhibition of FGFR family (FGFR1, FGFR2, FGFR3, FGFR4) kinase activity of a compound of Formula (I′) or (I). […] This value is presented as the IC50.

Question: With `C=CC(=O)Nc1ccc(CCn2c(=O)c(-c3c(Cl)c(OC)cc(OC)c3Cl)cc3cnc(NC(CO)CO)nc32)nc1` [Example 87, N-(6-(2-(6-(2,6-dichloro-3,5-dimethoxyphenyl)-2-((1,3-dihydroxypropan-2-yl)amino)-7-oxopyrido[2,3-d]pyrimidin-8(7H)-yl)ethyl)pyridin-3-yl)acrylamide] as the molecule, how does the pIC50 (SNU-16 cells) read?
Answer: The pIC50 was 6.77.

Question: What about the pIC50 (human recombinant FGFR1) of the same molecule?
Answer: Its pIC50 is 8.92.

Question: How did the pIC50 (SNU-16 cells) turn out when `C=CC(=O)Nc1ccc(CCn2c(=O)c(-c3cc(OC)cc(OC)c3F)cc3cnc(NCCN4CCOCC4)nc32)cc1F` [Example 53, N-(2-fluoro-4-(2-(6-(2-fluoro-3,5-dimethoxyphenyl)-2-((2-morpholinoethyl)amino)-7-oxopyrido[2,3-d]pyrimidin-8(7H)-yl)ethyl)phenyl)acrylamide] was run?
Answer: Its pIC50 is 7.15.

Question: And the pIC50 (human recombinant FGFR1)?
Answer: The pIC50 was 7.54.

Question: With `C=CC(=O)Nc1ccc(CCn2c(=O)c(-c3cc(OC)cc(OC)c3Cl)cc3cnc(NCCCN(CC)CC)nc32)cc1` [Example 40, N-(4-(2-(6-(2-chloro-3,5-dimethoxyphenyl)-2-((3-(diethylamino)propyl)amino)-7-oxopyrido[2,3-d]pyrimidin-8(7H)-yl)ethyl)phenyl)acrylamide] as the molecule, how does the pIC50 (SNU-16 cells) read?
Answer: The pIC50 was 8.52.

Question: And the pIC50 (human recombinant FGFR1)?
Answer: The pIC50 was 8.62.

Question: `C=CC(=O)Nc1ccc(CCn2c(=O)c(-c3c(Cl)c(OC)cc(OC)c3Cl)cc3cnc(NCC(C)(C)O)nc32)nc1` [Example 84, N-(6-(2-(6-(2,6-dichloro-3,5-dimethoxyphenyl)-2-((2-hydroxy-2-methylpropyl)-amino)-7-oxopyrido[2,3-d]pyrimidin-8(7H)-yl)ethyl)pyridin-3-yl)acrylamide] was tested. Which pIC50 (SNU-16 cells) did it give?
Answer: The pIC50 was 7.84.

Question: And the pIC50 (human recombinant FGFR1)?
Answer: The pIC50 was 9.15.

Question: `C=CC(=O)Nc1cccc(CCn2c(=O)c(-c3cc(OC)cc(OC)c3)cc3cnc(NC)nc32)n1` [Example 11, N-(6-(2-(6-(3,5-dimethoxyphenyl)-2-(methylamino)-7-oxopyrido[2,3-d]pyrimidin-8(7H)-yl)ethyl)pyridin-2-yl)acrylamide] was tested. Which pIC50 (SNU-16 cells) did it give?
Answer: Its pIC50 is 7.03.

Question: What about the pIC50 (human recombinant FGFR1) of the same molecule?
Answer: The pIC50 was 7.65.

Question: How did the pIC50 (SNU-16 cells) turn out when `C=CC(=O)Nc1ccc(CCn2c(=O)c(-c3cc(OC)cc(OC)c3Cl)cc3cnc(N)nc32)cc1` [Example 27, N-(4-(2-(2-amino-6-(2-chloro-3,5-dimethoxyphenyl)-7-oxopyrido[2,3-d]pyrimidin-8(7H)-yl)ethyl)phenyl)acrylamide] was run?
Answer: Its pIC50 is 8.13.

Question: What about the pIC50 (human recombinant FGFR1) of the same molecule?
Answer: The pIC50 was 9.05.

Question: What does the source list for `C=CC(=O)Nc1cnc(CCn2c(=O)c(-c3cc(OC)cc(OC)c3Cl)cc3cnc(NCCN4CCOCC4)nc32)cn1` [Example 47, N-(5-(2-(6-(2-chloro-3,5-dimethoxyphenyl)-2-((2-morpholinoethyl)amino)-7-oxopyrido[2,3-d]pyrimidin-8(7H)-yl)ethyl)pyrazin-2-yl)acrylamide]?
Answer: pIC50 (SNU-16 cells): 7.08; pIC50 (human recombinant FGFR1): 8.52

Question: With `C=CC(=O)Nc1ccc(CCn2c(=O)c(-c3cc(OC)cc(OC)c3Cl)cc3cnc(NCC4CC4)nc32)nc1` [Example 103, N-(6-(2-(6-(2-chloro-3,5-dimethoxyphenyl)-2-((cyclopropylmethyl)amino)-7-oxopyrido[2,3-d]pyrimidin-8(7H)-yl)ethyl)pyridin-3-yl)acrylamide] as the molecule, how does the pIC50 (SNU-16 cells) read?
Answer: Its pIC50 is 8.44.

Question: And the pIC50 (human recombinant FGFR1)?
Answer: The pIC50 was 9.22.

Question: What does the source list for `C=CC(=O)Nc1ccc(CCn2c(=O)c(-c3c(Cl)c(OC)cc(OC)c3Cl)cc3cnc(NCC(O)CO)nc32)nc1` (stereo not drawn) [Example 88, N-(6-(2-(6-(2,6-dichloro-3,5-dimethoxyphenyl)-2-((2,3-dihydroxypropyl)amino)-7-oxopyrido[2,3-d]pyrimidin-8(7H)-yl)ethyl)pyridin-3-yl)acrylamide]?
Answer: pIC50 (SNU-16 cells): 7.61; pIC50 (human recombinant FGFR1): 9.22

Question: How did the pIC50 (SNU-16 cells) turn out when `C=CC(=O)Nc1ccc(CCn2c(=O)c(-c3c(Cl)c(OC)cc(OC)c3Cl)cc3cnc(NC(C)(C)CO)nc32)cc1` [Example 77, N-(4-(2-(6-(2,6-dichloro-3,5-dimethoxyphenyl)-2-((1-hydroxy-2-methylpropan-2-yl)amino)-7-oxopyrido[2,3-d]pyrimidin-8(7H)-yl)ethyl)phenyl)acrylamide] was run?
Answer: Its pIC50 is 8.15.

Question: And the pIC50 (human recombinant FGFR1)?
Answer: The pIC50 was 8.64.

Question: With `CNc1ncc2cc(-c3cc(OC)cc(OC)c3Cl)c(=O)n(CCc3ccc(NS(=O)(=O)C=C(C)C)cc3)c2n1` [Example 45, N-(4-(2-(6-(2-chloro-3,5-dimethoxyphenyl)-2-(methylamino)-7-oxopyrido[2,3-d]pyrimidin-8(7H)-yl)ethyl)phenyl)-2-methylprop-1-ene-1-sulfonamide] as the molecule, how does the pIC50 (SNU-16 cells) read?
Answer: The pIC50 was 7.32.

Question: What about the pIC50 (human recombinant FGFR1) of the same molecule?
Answer: Its pIC50 is 8.40.

Question: With `C=CC(=O)Nc1ccc(CCn2c(=O)c(-c3c(Cl)c(OC)cc(OC)c3Cl)cc3cnc(NC(C)(CO)CO)nc32)cc1` [Example 91, N-(4-(2-(6-(2,6-dichloro-3,5-dimethoxyphenyl)-2-((1,3-dihydroxy-2-methylpropan-2-yl)amino)-7-oxopyrido[2,3-d]pyrimidin-8(7H)-yl)ethyl)phenyl)acrylamide] as the molecule, how does the pIC50 (SNU-16 cells) read?
Answer: The pIC50 was 8.54.

Question: What about the pIC50 (human recombinant FGFR1) of the same molecule?
Answer: Its pIC50 is 9.22.

Question: How did the pIC50 (SNU-16 cells) turn out when `C=CC(=O)Nc1ccc(CCn2c(=O)c(-c3c(Cl)c(OC)cc(OC)c3Cl)cc3cnc(NCC4CC4)nc32)cc1` [Example 90, N-(4-(2-(2-((cyclopropylmethyl)amino)-6-(2,6-dichloro-3,5-dimethoxyphenyl)-7-oxopyrido[2,3-d]pyrimidin-8(7H)-yl)ethyl)phenyl)acrylamide] was run?
Answer: The pIC50 was 8.34.

Question: And the pIC50 (human recombinant FGFR1)?
Answer: The pIC50 was 8.74.

Question: How did the pIC50 (SNU-16 cells) turn out when `C=CC(=O)Nc1ccc(CCn2c(=O)c(-c3c(Cl)c(OC)cc(OC)c3Cl)cc3cnc(NN4CCN(C)CC4)nc32)cc1` [Example 105, N-(4-(2-(6-(2,6-dichloro-3,5-dimethoxyphenyl)-2-((4-methylpiperazin-1-yl)amino)-7-oxopyrido[2,3-d]pyrimidin-8(7H)-yl)ethyl)phenyl)acrylamide] was run?
Answer: Its pIC50 is 8.11.

Question: And the pIC50 (human recombinant FGFR1)?
Answer: The pIC50 was 8.92.

Question: With `C=CC(=O)Nc1ccc(CCn2c(=O)c(-c3cc(OC)cc(OC)c3Cl)cc3cnc(NCCN4CCOCC4)nc32)cc1F` [Example 54, N-(4-(2-(6-(2-chloro-3,5-dimethoxyphenyl)-2-((2-morpholinoethyl)amino)-7-oxopyrido[2,3-d]pyrimidin-8(7H)-yl)ethyl)-2-fluorophenyl)acrylamide] as the molecule, how does the pIC50 (SNU-16 cells) read?
Answer: Its pIC50 is 7.48.

Question: What about the pIC50 (human recombinant FGFR1) of the same molecule?
Answer: Its pIC50 is 7.93.

Question: With `C#CCNc1ncc2cc(-c3cc(OC)cc(OC)c3Cl)c(=O)n(CCc3ccc(NC(=O)C=C)cn3)c2n1` [Example 59, N-(6-(2-(6-(2-chloro-3,5-dimethoxyphenyl)-7-oxo-2-(prop-2-yn-1-ylamino)pyrido-[2,3-d]pyrimidin-8(7H)-yl)ethyl)pyridin-3-yl)acrylamide] as the molecule, how does the pIC50 (SNU-16 cells) read?
Answer: Its pIC50 is 9.22.

Question: And the pIC50 (human recombinant FGFR1)?
Answer: Its pIC50 is 9.30.

Question: What does the source list for `C=CC(=O)Nc1ccc(CCn2c(=O)c(-c3cc(OC)cc(OC)c3Cl)cc3cnc(NCCN4CCN(C5COC5)CC4)nc32)cc1` [Example 78, N-(4-(2-(6-(2-chloro-3,5-dimethoxyphenyl)-2-((2-(4-(oxetan-3-yl)piperazin-1-yl)ethyl)amino)-7-oxopyrido[2,3-d]pyrimidin-8(7H)-yl)ethyl)phenyl)acrylamide]?
Answer: pIC50 (SNU-16 cells): 8.52; pIC50 (human recombinant FGFR1): 9.05

Question: What does the source list for `C=CC(=O)Nc1cccc(CCn2c(=O)c(-c3cc(OC)cc(OC)c3Cl)cc3cnc(NCCN4CCOCC4)nc32)c1` [Example 35, N-(3-(2-(6-(2-chloro-3,5-dimethoxyphenyl)-2-((2-morpholinoethyl)amino)-7-oxo-pyrido[2,3-d]pyrimidin-8(7H)-yl)ethyl)phenyl)acrylamide]?
Answer: pIC50 (SNU-16 cells): 8.44; pIC50 (human recombinant FGFR1): 8.22

Question: `C=CC(=O)Nc1cccc(CCn2c(=O)c(-c3cc(OC)cc(OC)c3F)cc3cnc(NCCN4CCOCC4)nc32)c1` [Example 52, N-(3-(2-(6-(2-fluoro-3,5-dimethoxyphenyl)-2-(2-morpholin-4-ylethyllamino)-7-oxopyrido[2,3-d]pyrimidin-8(7H)-yl)ethyl)phenyl)acrylamide] was tested. Which pIC50 (SNU-16 cells) did it give?
Answer: Its pIC50 is 7.82.

Question: And the pIC50 (human recombinant FGFR1)?
Answer: The pIC50 was 8.27.

Question: How did the pIC50 (SNU-16 cells) turn out when `C=CC(=O)Nc1ccc(CCn2c(=O)c(-c3cc(OC)cc(OC)c3Cl)cc3cnc(NC(C)(C)CN4CCOCC4)nc32)cc1` [Example 67, N-(4-(2-(6-(2-chloro-3,5-dimethoxyphenyl)-2-((2-methyl-1-morpholinopropan-2-yl)amino)-7-oxopyrido[2,3-d]pyrimidin-8(7H)-yl)ethyl)phenyl)acrylamide] was run?
Answer: The pIC50 was 8.01.

Question: What about the pIC50 (human recombinant FGFR1) of the same molecule?
Answer: The pIC50 was 8.64.

Question: How did the pIC50 (SNU-16 cells) turn out when `C#CCNc1ncc2cc(-c3c(Cl)c(OC)cc(OC)c3Cl)c(=O)n(CCc3ccc(NC(=O)C=C)cn3)c2n1` [Example 101, N-(6-(2-(6-(2,6-dichloro-3,5-dimethoxyphenyl)-7-oxo-2-(prop-2-yn-1-ylamino)-pyrido[2,3-d]pyrimidin-8(7H)-yl)ethyl)pyridin-3-yl)acrylamide] was run?
Answer: The pIC50 was 8.80.

Question: What about the pIC50 (human recombinant FGFR1) of the same molecule?
Answer: Its pIC50 is 9.52.

Question: What does the source list for `C=CC(=O)Nc1ccc(CCn2c(=O)c(-c3cc(OC)cc(OC)c3Cl)cc3cnc(NCCn4ccnc4)nc32)cc1` [Example 50, N-(4-(2-(2-((2-(1H-imidazol-1-yl)ethyl)amino)-6-(2-chloro-3,5-dimethoxyphenyl)-7-oxopyrido[2,3-d]pyrimidin-8(7H)-yl)ethyl)phenyl)acrylamide]?
Answer: pIC50 (SNU-16 cells): 7.93; pIC50 (human recombinant FGFR1): 8.13

Question: With `C=CC(=O)Nc1cccc(Cn2c(=O)c(-c3cc(OC)cc(OC)c3Cl)cc3cnc(NCCN4CCOCC4)nc32)c1` [Example 102, N-(3-((6-(2-chloro-3,5-dimethoxyphenyl)-2-((2-morpholinoethyl)amino)-7-oxopyrido[2,3-d]pyrimidin-8(7H)-yl)methyl)phenyl)acrylamide] as the molecule, how does the pIC50 (SNU-16 cells) read?
Answer: Its pIC50 is 8.41.

Question: And the pIC50 (human recombinant FGFR1)?
Answer: The pIC50 was 9.00.

Question: `C=CC(=O)Nc1ccc(CCn2c(=O)c(-c3c(Cl)c(OC)cc(OC)c3Cl)cc3cnc(NC(C)(C)CO)nc32)nc1` [Example 94, N-(6-(2-(6-(2,6-dichloro-3,5-dimethoxyphenyl)-2-((1-hydroxy-2-methylpropan-2-yl)amino)-7-oxopyrido[2,3-d]pyrimidin-8(7H)-yl)ethyl)pyridin-3-yl)acrylamide] was tested. Which pIC50 (SNU-16 cells) did it give?
Answer: Its pIC50 is 8.13.

Question: And the pIC50 (human recombinant FGFR1)?
Answer: The pIC50 was 8.68.
